Laboratory results: US11498903B2 (BRISTOL-MYERS SQUIBB COMPANY, priority 2017, dated 2022)
Where two headings read alike, the source gives them in different places.

Molecular target: T1, human APJ receptor (Homo sapiens, UniProt P35414)
T1 construct: expressed in transfected cells
T1 sequence (P35414 1-380): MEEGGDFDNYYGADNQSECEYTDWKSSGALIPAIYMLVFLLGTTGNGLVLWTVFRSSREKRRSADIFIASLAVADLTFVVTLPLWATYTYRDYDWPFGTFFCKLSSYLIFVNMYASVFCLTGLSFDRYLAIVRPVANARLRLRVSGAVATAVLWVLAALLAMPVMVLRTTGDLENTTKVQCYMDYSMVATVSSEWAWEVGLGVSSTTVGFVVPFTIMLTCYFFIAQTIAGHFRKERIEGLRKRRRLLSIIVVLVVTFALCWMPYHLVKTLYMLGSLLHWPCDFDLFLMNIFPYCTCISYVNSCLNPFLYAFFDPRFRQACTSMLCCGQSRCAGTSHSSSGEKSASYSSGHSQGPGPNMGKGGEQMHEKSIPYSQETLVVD
Test: Intracellular cAMP accumulation assay (APJ hcAMP, HTRF)
Assay type: cell-based
Procedure: Intracellular cAMP Accumulation Assay
HEK293 cells stably expressing human APJ receptor were used to assess the activity of compounds. Cultured cells were detached and resuspended in the cAMP Homogeneous Time-Resolved Fluorescence (HTRF) assay buffer (Cisbio cat; #62AM4PEJ). The assay was performed in 384-well assay plates (Perkin-Elmer; cat #6008289) according to assay protocol provided by the manufacturer. Serial dilutions of a compound together with assay buffer containing […] IBMX and 2 μM forskolin were added to each well containing 5,000 cells and incubated for 30 minutes at room temperature. Subsequently, cAMP D2 reagent was added in the lysis buffer followed by the EuK antibody (Cisbio; cat #62AM4PEJ) and incubated for 60 min. The fluorescence emission ratio was measured using fluorometer. The intracellular cAMP concentrations (compound-stimulated inhibition of forskolin-mediated cAMP production) were calculated by extrapolation from a standard curve using known cAMP concentrations. The EC50 values were obtained by fitting the data to a sigmoidal concentration-response curve with variable slope. The maximal achievable inhibition of forskolin-induced cAMP levels (Ymax) for each compound was expressed as relative percentage of inhibition attained using pyroglutamated apelin-13 ((Pyrl)apelin-13) peptide, which was set to 100%.
The exemplified Examples disclosed below were tested in the APJ in vitro assays described above and were found having human APJ cyclic AMP (hcAMP) activity. Table 1 lists hcAMP EC50 values measured for the following examples. Ranges are as followε: A=0.0-10 nM; B=10.01-100 nM; C=101-500 nM.

[1] = Table 1, HEK293 cells stably expressing human APJ receptor, inhibition of forskolin-mediated cAMP production, read-out: APJ hcAMP EC50
[2] = human APJ, cAMP, potency range class, read-out: APJ cAMP Human EC50
[3] = Table 3, HEK293 cells stably expressing human APJ receptor, read-out: APJ cAMP Human EC50

EC50 [1] [nM] | EC50 [2] [nM] | EC50 [3] [nM] | Structure (SMILES)
10 to 100 | 10 to 100 |  | CCC(NC(=O)c1ccc(-c2cc(Cl)ccc2-c2nc3ccccc3[nH]2)c(C(=O)O)c1)c1ccccn1 (racemic) [Example 213, 2′-(1H-1,3-benzodiazol-2-yl)-5′-chloro-4-{[1-(pyridin-2-yl)propyl]carbamoyl}-[1,1′-biphenyl]-2-carboxylic acid]
10 to 100 | 10 to 100 |  | CCC(NC(=O)c1ccc(-c2cc(Cl)ccc2-c2nc3ccccc3[nH]2)c(C(=O)O)c1)c1ccncc1 (racemic) [Example 214, 2′-(1H-1,3-benzodiazol-2-yl)-5′-chloro-4-{[1-(pyridin-4-yl)propyl]carbamoyl}-[1,1′-biphenyl]-2-carboxylic acid]
< 10 |  | < 10 | CCC[C@@H](NC(=O)c1ccc(-c2c(C)cccc2-c2nc3cc(C(F)(F)F)ccc3[nH]2)c(C(=O)O)c1)c1ccccc1 (single isomer, unassigned) [Example 146]
 |  | 101 to 500 | CCC[C@@H](NC(=O)c1ccc(-c2c(C)cccc2-c2nc3cc(C(F)(F)F)ccc3[nH]2)c(C(=O)O)c1)c1ccccc1 (single isomer, unassigned) [Example 147]
< 10 | < 10 |  | CCCC(NC(=O)c1ccc(-c2c(Cl)cccc2-c2nc3cc(Cl)c(F)cc3[nH]2)c(C(=O)O)c1)C1CCCCC1 (single isomer, unassigned) [Example 161]
< 10 | < 10 |  | CCCC(NC(=O)c1ccc(-c2c(Cl)cccc2-c2nc3ccccc3[nH]2)c(C(=O)O)c1)c1c(C)cc(C)cc1C (single isomer, unassigned) [Example 163]
< 10 | < 10 |  | CCCC(NC(=O)c1ccc(-c2c(Cl)cccc2-c2nc3ccccc3[nH]2)c(C(=O)O)c1)c1ccc(Cl)cc1OC (single isomer, unassigned) [Example 164]
< 10 | < 10 |  | CCCC(NC(=O)c1ccc(-c2c(Cl)cccc2-c2nc3ccccc3[nH]2)c(C(=O)O)c1)c1ccc(F)cc1OC (single isomer, unassigned) [Example 165]
< 10 |  |  | CCCC(NC(=O)c1ccc(-c2c(Cl)cccc2-c2nc3ccccc3[nH]2)c(C(=O)O)c1)c1ccc(Cl)cc1OC (single isomer, unassigned) [Example 166]
< 10 | < 10 |  | CCCC(NC(=O)c1ccc(-c2c(Cl)cccc2-c2nc3ccccc3[nH]2)c(C(=O)O)c1)c1ccncc1 (single isomer, unassigned) [Example 168]
< 10 | < 10 |  | CCCC(NC(=O)c1ccc(-c2c(Cl)cccc2-c2nc3ccccc3[nH]2)c(C(=O)O)c1)c1ccccc1Cl (single isomer, unassigned) [Example 169]
< 10 | < 10 |  | CCCC(NC(=O)c1ccc(-c2c(Cl)cccc2-c2nc3ccccc3[nH]2)c(C(=O)O)c1)c1cccc(F)c1 (single isomer, unassigned) [Example 171]
< 10 | < 10 |  | CCCC(NC(=O)c1ccc(-c2c(Cl)cccc2-c2nc3ccccc3[nH]2)c(C(=O)O)c1)C1CCCCCC1 (single isomer, unassigned) [Example 173]
< 10 | < 10 |  | CCCC(NC(=O)c1ccc(-c2c(Cl)cccc2-c2nc3ccccc3[nH]2)c(C(=O)O)c1)c1ccccn1 (single isomer, unassigned) [Example 175]
< 10 | < 10 |  | CCC[C@H](NC(=O)c1ccc(-c2c(Cl)cccc2-c2nc3ccccc3[nH]2)c(C(=O)O)c1)c1ccccc1OC(F)(F)F (single isomer, unassigned) [Example 176]
< 10 | < 10 |  | CCC[C@H](NC(=O)c1ccc(-c2c(Cl)cccc2-c2nc3ccccc3[nH]2)c(C(=O)O)c1)C1CCCCC1 (single isomer, unassigned) [Example 177]
< 10 | < 10 |  | CCCC(NC(=O)c1ccc(-c2c(Cl)cccc2-c2nc3ccccc3[nH]2)c(C(=O)O)c1)c1c(F)cccc1OC (single isomer, unassigned) [Example 178]
< 10 | < 10 |  | CCCC(NC(=O)c1ccc(-c2c(Cl)cccc2-c2nc3ccccc3[nH]2)c(C(=O)O)c1)c1ccc(Cl)cc1F (single isomer, unassigned) [Example 182]

EC50 [1] [nM] | EC50 [2] [nM] | EC50 [3] [nM] | Structure (SMILES)
< 10 | < 10 |  | CCCC(NC(=O)c1ccc(-c2c(Cl)cccc2-c2nc3ccccc3[nH]2)c(C(=O)O)c1)C1CCCC1 (single isomer, unassigned) [Example 183]
< 10 |  |  | CCCC(NC(=O)c1ccc(-c2c(Cl)cccc2-c2nc3ccccc3[nH]2)c(C(=O)O)c1)c1ccc(Cl)cc1F (single isomer, unassigned) [Example 184]
< 10 | < 10 |  | CCC[C@H](NC(=O)c1ccc(-c2c(Cl)cccc2-c2nc3ccccc3[nH]2)c(C(=O)O)c1)c1cccc(Cl)c1 (single isomer, unassigned) [Example 185]
< 10 | < 10 |  | CCCC(NC(=O)c1ccc(-c2c(Cl)cccc2-c2nc3ccccc3[nH]2)c(C(=O)O)c1)c1cncs1 (single isomer, unassigned) [Example 186]
10 to 100 | 10 to 100 |  | CCCC(NC(=O)c1ccc(-c2c(Cl)cccc2-c2nc3ccccc3[nH]2)c(C(=O)O)c1)c1ccccc1C(F)(F)F (single isomer, unassigned) [Example 189]
10 to 100 | 10 to 100 |  | CCCC(NC(=O)c1ccc(-c2c(Cl)cccc2-c2nc3ccccc3[nH]2)c(C(=O)O)c1)c1ccccc1OC(F)(F)F (single isomer, unassigned) [Example 191]
10 to 100 | 10 to 100 |  | CCCC(NC(=O)c1ccc(-c2c(Cl)cccc2-c2nc3ccccc3[nH]2)c(C(=O)O)c1)c1ccncc1 (single isomer, unassigned) [Example 192]
< 10 | < 10 |  | CCCC(NC(=O)c1ccc(-c2c(Cl)cccc2-c2nc3cc(OC)c(F)cc3[nH]2)c(C(=O)O)c1)C1CCCC1 (single isomer, unassigned) [Example 195]
< 10 | < 10 |  | CCC[C@H](NC(=O)c1ccc(-c2c(Cl)cccc2-c2nc3cc(OC)c(F)cc3[nH]2)c(C(=O)O)c1)c1ccccc1C(F)(F)F (single isomer, unassigned) [Example 196]
< 10 | < 10 |  | CCCC(NC(=O)c1ccc(-c2c(Cl)cccc2-c2nc3cc(OC)c(F)cc3[nH]2)c(C(=O)O)c1)c1ccc(Cl)cc1OC (single isomer, unassigned) [Example 197]
< 10 | < 10 |  | CCCC(NC(=O)c1ccc(-c2c(Cl)cccc2-c2nc3cc(OC)c(F)cc3[nH]2)c(C(=O)O)c1)C1CCCCC1 (single isomer, unassigned) [Example 198]
< 10 | < 10 |  | CCC[C@H](NC(=O)c1ccc(-c2c(Cl)cccc2-c2nc3cc(Cl)c(F)cc3[nH]2)c(C(=O)O)c1)c1ccncc1 (single isomer, unassigned) [Example 199]
< 10 | < 10 |  | CCC[C@H](NC(=O)c1ccc(-c2c(Cl)cccc2-c2nc3cc(Cl)c(F)cc3[nH]2)c(C(=O)O)c1)c1ccc(Cl)cc1OC (single isomer, unassigned) [Example 200]
< 10 | < 10 |  | CCCC(NC(=O)c1ccc(-c2c(Cl)cccc2-c2nc3cc(Cl)c(F)cc3[nH]2)c(C(=O)O)c1)c1c(C)cc(C)cc1C (single isomer, unassigned) [Example 201]
101 to 500 | 101 to 500 |  | COC(=O)c1cc(C(=O)N[C@H](c2ccc(Cl)cc2)C2CC2)ccc1-c1c(Cl)cccc1-c1nc2cc(OC)c(F)cc2[nH]1 (single isomer, unassigned) [Example 204]
10 to 100 | 10 to 100 |  | COc1cc2nc(-c3cccc(Cl)c3-c3ccc(C(=O)N[C@H](c4ccc(Cl)cc4)C4CC4)cc3CO)[nH]c2cc1F (single isomer, unassigned) [Example 205]
< 10 | < 10 |  | CCCC(NC(=O)c1ccc(-c2cc(Cl)ccc2-c2nc3ccccc3[nH]2)c(C(=O)O)c1)c1ccc(F)cc1 (single isomer, unassigned) [Example 209, 2′-(1H-1,3-benzodiazol-2-yl)-5′-chloro-4-{[1-(4-fluorophenyl)butyl]carbamoyl}-[1,1′-biphenyl]-2-carboxylic acid]
